Test results published in ChEMBL document CHEMBL1201862, “PubChem BioAssay data set” (2004).
Calls of active or inactive are those of the source.

Legend:
[1] = target: G-protein coupled receptor 55 (Homo sapiens, UniProt Q9Y2T6); test: inhibition of LPI-stimulated GPR55 beta-arrestin translocation – imaging, U2OS, beta-arrestin-GFP, LPI agonist, primary screen (AID 2013); format: functional;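 also: antagonist potency measured as reduced agonist-driven arrestin aggregation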
[2] = target: T1, Fatty acid synthase (Homo sapiens, UniProt P49327); test: inhibition of human FAS-TE enzyme activity – biochemical, kinetic fluorescence intensity, dose response (AID 624326); format: functional;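 also: rate of fluorescence rise from hydrolysis of a fluorogenic O-methyl fluorescein ester substrate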
[3] = test system: HEK293; test: cells; format: functional, cell-based; settings: Homo sapiens
[4] = microbe, parasite or virus in culture; format: functional; settings: Mycobacterium tuberculosis
[5] = test system: HEK293; test: NOD2 signaling inhibitors in MDP-stimulated cells, cell-based, uHTS, luminescence (AID 2001); format: functional; settings: Homo sapiens
[6] = test system: HEK293; test: cells; format: functional, cell-based; settings: Homo sapiens; remark: listed apart in the source
[7] = test system: HEK293; test: cells; format: functional, cell-based; settings: Homo sapiens; remark: listed apart in the source
[8] = test system: Streptococcus sp. 'group A'; test: Streptococcus pyogenes SK(-)GAS viability under kanamycin – luminescence, BacTiterGlo, confirmation, counter-screen for streptokinase expression inhibitor project, dose response (AID 1900); format: functional, organism-based
[9] = target: T1, Fatty acid synthase; test: inhibition of human FAS-TE enzyme activity – biochemical, endpoint fluorescence intensity, uHTS hits, dose response (AID 624327); format: functional;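 also: fluorescence from hydrolysis of an O-methyl fluorescein acyl ester substrate by the enzyme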
[10] = target: Nucleotide-binding oligomerization domain-containing protein 2 (Homo sapiens, UniProt Q9HC29); test: inhibition of NOD2-driven NF-kB reporter – cell-based, luminescence, uHTS, HEK293 (AID 1566); format: functional
[11] = test system: INS1; test: INS-1E survival protection against cytokine death – cell-based, luminescence, retest, dose response (AID 449756); format: functional; settings: Rattus norvegicus;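 also: cell death triggered by IL-1 beta plus TNF-alpha plus IFN-gamma mixture; protective hits raise ATP signal compared with cytokine alone wells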
[12] = test system: HEK293; test: inhibition of NOD1-driven NF-kB reporter – cell-based, luminescence, uHTS, primary screen (AID 1578); format: functional; settings: Homo sapiens
[13] = test system: Streptococcus; test: GAS UMAA2166 growth inhibition – luminescence, BacTiterGlo, counter-screen for streptokinase expression inhibitor project, dose response (AID 1915); format: functional, organism-based;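 also: potency for reduction of bacterial viability or growth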
[14] = target: Cytochrome P450 2C19 (Homo sapiens, UniProt P33261); test: Cytochrome panel assay with activity outcomes. Panel member name: p450-cyp2c19 Compounds with AC50 equal or less than 10 uM are considered active; format: functional; settings: read-out: AC50
[15] = test system: T-cell; test: loss of vesicle association with mouse CD8+ T cells – mouse 2C CD8+ T cells, flow cytometry, dose response (AID 485284); format: functional
[16] = target: T2, Coagulation factor XII (Homo sapiens, UniProt P00748); test: activated coagulation factor XII inhibitor potency, concentration-effect curve, cell-free (AID 716); format: functional
T2 sequence (P00748 whole entry): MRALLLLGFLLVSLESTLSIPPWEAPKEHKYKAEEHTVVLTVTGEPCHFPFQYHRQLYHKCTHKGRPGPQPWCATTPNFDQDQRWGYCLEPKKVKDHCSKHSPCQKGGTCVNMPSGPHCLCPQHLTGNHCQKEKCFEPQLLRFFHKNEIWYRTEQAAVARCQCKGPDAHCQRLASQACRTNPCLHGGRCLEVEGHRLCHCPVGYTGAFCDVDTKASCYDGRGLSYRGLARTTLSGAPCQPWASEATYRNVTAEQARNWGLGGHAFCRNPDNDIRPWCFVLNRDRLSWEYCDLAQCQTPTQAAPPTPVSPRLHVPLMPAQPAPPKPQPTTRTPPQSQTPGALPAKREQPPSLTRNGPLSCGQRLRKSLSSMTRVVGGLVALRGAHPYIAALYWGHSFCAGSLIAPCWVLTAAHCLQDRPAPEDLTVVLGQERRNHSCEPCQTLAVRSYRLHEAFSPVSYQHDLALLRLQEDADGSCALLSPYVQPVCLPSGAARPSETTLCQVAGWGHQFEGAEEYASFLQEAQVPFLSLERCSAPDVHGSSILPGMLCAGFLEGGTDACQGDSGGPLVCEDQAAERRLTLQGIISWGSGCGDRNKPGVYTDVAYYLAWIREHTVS

[17] = target: T3, Polyadenylate-binding protein 1 (Homo sapiens, UniProt P11940); test: PABP inhibition in translation initiation, SAR follow-up (AID 435018); format: functional
[18] = target: T4, Eukaryotic translation initiation factor 4H (Homo sapiens, UniProt Q15056); test: eIF4H binding inhibition – biochemical, uHTS, fluorescence polarization, translation initiation inhibitor project, primary screen (AID 2012)
[19] = target: T4, Eukaryotic translation initiation factor 4H; test: inhibitors of translation initiation factor eIF4H – SAR follow-up (AID 435011); format: functional
[20] = target: T3, Polyadenylate-binding protein 1; test: blockers of PABP interaction with poly(A) – biochemical, fluorescence polarization, […] (AID 2014)
[21] = target: Luciferin 4-monooxygenase (Photinus pyralis, UniProt P08659); test: inhibition of purified Photinus pyralis luciferase – biochemical, luminescence, dose response (AID 1891)
[22] = Luminescence Cell-Based Dose Confirmation HTS to Identify Inhibitors of Platelet Dense Granule Release. [Related pubchem assays: 1663 (Primary HTS), 1678 (Summary of Project)]; format: functional

T1 sequence (P49327 whole entry): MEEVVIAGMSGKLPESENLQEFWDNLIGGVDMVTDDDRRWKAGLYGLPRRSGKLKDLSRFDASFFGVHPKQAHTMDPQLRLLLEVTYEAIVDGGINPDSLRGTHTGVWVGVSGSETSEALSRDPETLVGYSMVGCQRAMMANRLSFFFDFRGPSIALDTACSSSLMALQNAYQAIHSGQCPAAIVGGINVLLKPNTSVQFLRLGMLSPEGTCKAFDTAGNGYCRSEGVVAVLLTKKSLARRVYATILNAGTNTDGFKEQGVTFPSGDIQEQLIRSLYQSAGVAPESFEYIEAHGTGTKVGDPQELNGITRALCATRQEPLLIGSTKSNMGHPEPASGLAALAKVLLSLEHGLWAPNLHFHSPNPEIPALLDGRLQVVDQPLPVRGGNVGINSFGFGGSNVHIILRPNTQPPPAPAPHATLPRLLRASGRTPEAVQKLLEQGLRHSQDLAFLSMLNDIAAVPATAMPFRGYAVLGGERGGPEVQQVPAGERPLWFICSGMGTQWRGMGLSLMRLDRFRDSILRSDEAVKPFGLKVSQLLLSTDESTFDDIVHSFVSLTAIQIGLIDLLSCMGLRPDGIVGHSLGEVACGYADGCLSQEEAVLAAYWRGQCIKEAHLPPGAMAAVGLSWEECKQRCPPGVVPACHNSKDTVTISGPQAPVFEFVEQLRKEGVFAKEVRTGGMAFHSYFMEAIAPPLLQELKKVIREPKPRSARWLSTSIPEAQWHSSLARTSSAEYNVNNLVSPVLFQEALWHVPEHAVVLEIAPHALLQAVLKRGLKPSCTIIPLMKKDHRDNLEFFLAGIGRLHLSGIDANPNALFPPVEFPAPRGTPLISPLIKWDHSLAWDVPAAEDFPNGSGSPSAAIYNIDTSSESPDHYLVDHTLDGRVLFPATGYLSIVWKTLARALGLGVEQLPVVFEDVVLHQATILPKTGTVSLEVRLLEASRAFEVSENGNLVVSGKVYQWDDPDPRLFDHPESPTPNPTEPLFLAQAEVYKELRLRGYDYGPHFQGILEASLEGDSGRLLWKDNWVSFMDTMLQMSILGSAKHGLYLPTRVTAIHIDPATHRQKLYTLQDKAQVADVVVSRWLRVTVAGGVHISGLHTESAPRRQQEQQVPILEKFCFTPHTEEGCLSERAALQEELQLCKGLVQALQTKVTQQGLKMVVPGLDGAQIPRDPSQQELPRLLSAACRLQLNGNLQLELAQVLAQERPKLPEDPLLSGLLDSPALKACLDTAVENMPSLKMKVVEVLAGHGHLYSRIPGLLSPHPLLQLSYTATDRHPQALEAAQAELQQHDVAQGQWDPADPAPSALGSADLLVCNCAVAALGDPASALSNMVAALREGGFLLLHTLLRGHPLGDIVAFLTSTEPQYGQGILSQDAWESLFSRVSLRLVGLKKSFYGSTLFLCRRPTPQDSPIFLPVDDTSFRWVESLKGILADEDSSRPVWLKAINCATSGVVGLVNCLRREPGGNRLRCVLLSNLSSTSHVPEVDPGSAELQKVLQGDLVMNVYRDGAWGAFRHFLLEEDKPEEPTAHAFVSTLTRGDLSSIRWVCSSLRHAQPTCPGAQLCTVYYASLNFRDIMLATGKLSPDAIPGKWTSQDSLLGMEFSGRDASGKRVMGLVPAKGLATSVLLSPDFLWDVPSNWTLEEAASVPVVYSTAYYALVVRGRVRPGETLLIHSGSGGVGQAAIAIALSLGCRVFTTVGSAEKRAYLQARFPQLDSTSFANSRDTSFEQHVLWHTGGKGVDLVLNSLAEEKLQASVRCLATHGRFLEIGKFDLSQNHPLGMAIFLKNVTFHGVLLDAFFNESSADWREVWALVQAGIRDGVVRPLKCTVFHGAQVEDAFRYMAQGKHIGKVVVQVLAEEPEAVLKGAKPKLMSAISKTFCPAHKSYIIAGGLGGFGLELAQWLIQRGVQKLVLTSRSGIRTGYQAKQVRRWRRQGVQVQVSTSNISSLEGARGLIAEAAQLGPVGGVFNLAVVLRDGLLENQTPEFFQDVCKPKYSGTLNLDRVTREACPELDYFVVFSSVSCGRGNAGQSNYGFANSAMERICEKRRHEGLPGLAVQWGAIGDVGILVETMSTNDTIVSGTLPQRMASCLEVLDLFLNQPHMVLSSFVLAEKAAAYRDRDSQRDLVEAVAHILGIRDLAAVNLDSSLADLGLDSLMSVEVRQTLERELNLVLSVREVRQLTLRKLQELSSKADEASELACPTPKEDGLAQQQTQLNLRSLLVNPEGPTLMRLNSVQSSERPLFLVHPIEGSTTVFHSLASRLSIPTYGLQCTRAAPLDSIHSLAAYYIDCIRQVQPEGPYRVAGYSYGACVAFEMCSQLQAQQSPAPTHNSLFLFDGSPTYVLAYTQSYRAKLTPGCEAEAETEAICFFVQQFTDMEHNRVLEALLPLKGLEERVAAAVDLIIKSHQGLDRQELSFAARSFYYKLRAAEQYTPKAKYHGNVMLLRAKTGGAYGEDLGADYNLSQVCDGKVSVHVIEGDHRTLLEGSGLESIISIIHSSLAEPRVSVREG
T3 sequence (P11940 whole entry): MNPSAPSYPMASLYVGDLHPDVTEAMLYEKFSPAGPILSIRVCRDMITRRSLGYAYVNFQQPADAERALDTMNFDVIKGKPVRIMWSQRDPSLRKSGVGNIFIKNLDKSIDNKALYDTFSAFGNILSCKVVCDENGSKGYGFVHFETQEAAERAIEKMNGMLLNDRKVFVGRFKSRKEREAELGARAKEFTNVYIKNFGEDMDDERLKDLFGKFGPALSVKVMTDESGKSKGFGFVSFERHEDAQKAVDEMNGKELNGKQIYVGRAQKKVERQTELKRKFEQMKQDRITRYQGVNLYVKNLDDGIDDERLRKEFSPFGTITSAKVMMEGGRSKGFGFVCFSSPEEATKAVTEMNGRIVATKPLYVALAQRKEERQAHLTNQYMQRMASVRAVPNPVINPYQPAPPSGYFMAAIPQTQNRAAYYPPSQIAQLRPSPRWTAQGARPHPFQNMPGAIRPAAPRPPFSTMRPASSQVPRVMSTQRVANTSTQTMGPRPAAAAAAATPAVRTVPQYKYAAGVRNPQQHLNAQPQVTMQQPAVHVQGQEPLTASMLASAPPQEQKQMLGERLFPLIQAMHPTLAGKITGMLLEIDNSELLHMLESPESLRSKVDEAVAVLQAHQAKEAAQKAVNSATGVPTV
Nucleotide-binding oligomerization domain-containing protein 2, sequence (Q9HC29 whole entry, the tested form may be a part): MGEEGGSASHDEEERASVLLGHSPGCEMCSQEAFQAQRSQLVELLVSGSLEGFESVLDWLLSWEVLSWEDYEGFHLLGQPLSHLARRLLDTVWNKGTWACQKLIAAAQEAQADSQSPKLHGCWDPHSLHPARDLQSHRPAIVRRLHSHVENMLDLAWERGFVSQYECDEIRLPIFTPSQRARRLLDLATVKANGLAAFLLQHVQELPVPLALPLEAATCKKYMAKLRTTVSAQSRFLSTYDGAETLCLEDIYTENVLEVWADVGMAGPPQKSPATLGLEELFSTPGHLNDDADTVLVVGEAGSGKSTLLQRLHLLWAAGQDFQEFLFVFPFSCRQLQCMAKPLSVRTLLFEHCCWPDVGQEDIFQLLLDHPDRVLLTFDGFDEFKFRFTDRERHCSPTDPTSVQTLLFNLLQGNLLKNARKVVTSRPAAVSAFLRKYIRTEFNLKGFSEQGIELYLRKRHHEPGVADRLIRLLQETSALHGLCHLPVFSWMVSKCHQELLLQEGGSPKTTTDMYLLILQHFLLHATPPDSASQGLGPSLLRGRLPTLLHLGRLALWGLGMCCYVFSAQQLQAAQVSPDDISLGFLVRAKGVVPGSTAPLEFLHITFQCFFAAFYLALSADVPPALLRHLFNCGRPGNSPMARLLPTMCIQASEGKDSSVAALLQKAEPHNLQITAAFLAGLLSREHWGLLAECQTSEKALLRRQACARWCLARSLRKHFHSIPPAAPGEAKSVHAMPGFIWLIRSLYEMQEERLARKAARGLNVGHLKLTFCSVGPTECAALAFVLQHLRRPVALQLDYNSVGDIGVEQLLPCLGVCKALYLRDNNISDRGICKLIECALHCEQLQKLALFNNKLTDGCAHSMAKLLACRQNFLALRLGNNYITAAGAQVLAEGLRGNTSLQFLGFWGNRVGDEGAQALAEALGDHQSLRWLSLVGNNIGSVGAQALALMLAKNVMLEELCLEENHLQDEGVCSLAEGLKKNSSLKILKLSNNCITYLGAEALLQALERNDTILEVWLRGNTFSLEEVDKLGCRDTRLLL
G-protein coupled receptor 55, sequence (Q9Y2T6 whole entry): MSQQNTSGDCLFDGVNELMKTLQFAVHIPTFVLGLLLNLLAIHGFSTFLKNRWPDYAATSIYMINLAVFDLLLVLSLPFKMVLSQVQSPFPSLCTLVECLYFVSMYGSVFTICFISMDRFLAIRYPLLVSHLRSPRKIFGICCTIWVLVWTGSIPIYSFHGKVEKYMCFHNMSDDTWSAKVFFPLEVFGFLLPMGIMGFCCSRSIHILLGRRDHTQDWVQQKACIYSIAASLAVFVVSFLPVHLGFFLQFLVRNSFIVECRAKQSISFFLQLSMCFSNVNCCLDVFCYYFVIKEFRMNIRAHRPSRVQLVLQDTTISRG

Q: Which IC50 [1] does the source give for CN(C1CCCCC1)S(=O)(=O)c1ccc(NC(=O)C2CCCCC2C(=O)O)cc1 (configuration not stated) here?
A: 4.72 µM (active)

Q: With CCOc1ccc(-c2csc(/C(C#N)=C\c3ccc(O)c([N+](=O)[O-])c3)n2)cc1 as the compound, how does the IC50 [2] read?
A: 6.74 µM (active)

Q: What about the IC50 [3] of the same compound?
A: 1.83 µM (active)

Q: And the CC50 [4]?
A: 10.5 µM (active)

Q: What about the IC50 [5] of the same compound?
A: 2.58 µM (inactive)

Q: And the IC50 [6]?
A: 6.63 µM (active)

Q: And the IC50 [7]?
A: > 20 µM (inactive)

Q: And the EC50 [8]?
A: 2.18 µM (active)

Q: What about the IC50 [9] of the same compound?
A: 6.61 µM (active)

Q: What about the EC50 [10] of the same compound?
A: 6.23 µM (active)

Q: What about the AC50 [11] of the same compound?
A: 4 µM (active)

Q: And the EC50 [12]?
A: 1.52 µM (active)

Q: And the EC50 [13]?
A: 3.58 µM (active)

Q: Which results are given for COc1ccc(C(=O)C2=C(O)C(=O)N(Cc3cccnc3)C2c2ccco2)cc1OC (configuration not stated)?
A: AC50 [14]: 0.0891 µM (inconclusive); EC50 [15]: 64 µM (inactive)

Q: Which IC50 [16] does the source give for COc1ccc(N2CCN(C(=O)c3c(-c4ccccc4)noc3C)CC2)cc1 here?
A: > 50 µM (inactive)

Q: With CCN1CCN(S(=O)(=O)c2ccc(Cl)c(C(=O)Nc3ccc(C(=O)N(CC)CC)cc3)c2)CC1 as the compound, how does the IC50 [17] read?
A: 1.33 µM (active)

Q: And the IC50 [18]?
A: > 100 µM (inactive)

Q: What about the IC50 [19] of the same compound?
A: > 100 µM (inactive)

Q: What about the IC50 [20] of the same compound?
A: 15.1 µM (active)

Q: What about the EC50 [21] of the same compound?
A: > 112 µM (not active)

Q: What about the EC50 [22] of the same compound?
A: > 112 µM (not active)
